Source: ChEMBL document CHEMBL5465560, “Selectivity Literature for EUbOPEN Chemogenomic Library” (2024)

Key:
[1] = target: Death-associated protein kinase 3 (Homo sapiens) (UniProt O43293); test: Selectivity interaction (KinomeScan (DiscoverX)) EUB0000229b DAPK3; settings: at 10 µM
[2] = target: T1, Serine/threonine-protein kinase Nek5 (Homo sapiens) (UniProt Q6P3R8); test: Selectivity interaction (KinomeScan (DiscoverX)) EUB0000229b NEK5; settings: at 10 µM
T1 sequence (whole entry): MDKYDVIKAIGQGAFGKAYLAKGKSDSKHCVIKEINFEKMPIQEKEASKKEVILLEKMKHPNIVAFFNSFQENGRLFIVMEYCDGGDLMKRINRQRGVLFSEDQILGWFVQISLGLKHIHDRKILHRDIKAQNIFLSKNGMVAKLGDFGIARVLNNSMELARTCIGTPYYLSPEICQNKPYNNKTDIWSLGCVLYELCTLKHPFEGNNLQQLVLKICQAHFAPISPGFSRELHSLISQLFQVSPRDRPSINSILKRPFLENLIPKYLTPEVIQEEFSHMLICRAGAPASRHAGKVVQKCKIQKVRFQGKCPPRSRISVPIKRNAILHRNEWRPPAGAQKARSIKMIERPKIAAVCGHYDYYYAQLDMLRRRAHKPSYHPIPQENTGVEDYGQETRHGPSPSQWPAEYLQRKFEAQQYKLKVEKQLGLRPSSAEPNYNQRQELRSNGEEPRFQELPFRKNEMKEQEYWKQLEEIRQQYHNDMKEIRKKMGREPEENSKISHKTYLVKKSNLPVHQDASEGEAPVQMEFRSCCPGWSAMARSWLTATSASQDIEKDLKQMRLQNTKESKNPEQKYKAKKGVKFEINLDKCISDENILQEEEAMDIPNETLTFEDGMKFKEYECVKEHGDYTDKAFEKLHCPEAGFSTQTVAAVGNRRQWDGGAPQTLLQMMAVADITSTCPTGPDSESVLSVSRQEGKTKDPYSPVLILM

[3] = target: Serine/threonine-protein kinase N2 (Homo sapiens, UniProt Q16513); test: Selectivity interaction (KinomeScan (DiscoverX)) EUB0000229b PKN2; settings: at 10 µM
[4] = target: L-type calcium channel Cav1.2 (CACNA1C) (Homo sapiens, UniProt Q13936); test: Selectivity interaction (Eurofins CEREP Diversity Profile (receptors and ion channels)) EUB0000279b CACNA1C; settings: at 10 µM, read-out: % of control
[5] = target: Cyclin-dependent kinase 11B (Homo sapiens) (UniProt P21127); test: Selectivity interaction (KinomeScan (DiscoverX)) EUB0001079a CDK11B; settings: at 1 µM
[6] = target: RAC-gamma serine/threonine-protein kinase (Homo sapiens, UniProt Q9Y243); settings: at 10 µM
[7] = system: Mast/stem cell growth factor receptor Kit (Homo sapiens), P10721 [D816V]; settings: at 10 µM
[8] = target: Serine/threonine-protein kinase 10 (Homo sapiens) (UniProt O94804); settings: at 10 µM
[9] = target: T2, Serine/threonine-protein kinase RIO1 (Homo sapiens) (UniProt Q9BRS2); test: Selectivity interaction (KinomeScan (DiscoverX)) EUB0000595a RIOK1; settings: at 10 µM
T2 sequence (whole entry): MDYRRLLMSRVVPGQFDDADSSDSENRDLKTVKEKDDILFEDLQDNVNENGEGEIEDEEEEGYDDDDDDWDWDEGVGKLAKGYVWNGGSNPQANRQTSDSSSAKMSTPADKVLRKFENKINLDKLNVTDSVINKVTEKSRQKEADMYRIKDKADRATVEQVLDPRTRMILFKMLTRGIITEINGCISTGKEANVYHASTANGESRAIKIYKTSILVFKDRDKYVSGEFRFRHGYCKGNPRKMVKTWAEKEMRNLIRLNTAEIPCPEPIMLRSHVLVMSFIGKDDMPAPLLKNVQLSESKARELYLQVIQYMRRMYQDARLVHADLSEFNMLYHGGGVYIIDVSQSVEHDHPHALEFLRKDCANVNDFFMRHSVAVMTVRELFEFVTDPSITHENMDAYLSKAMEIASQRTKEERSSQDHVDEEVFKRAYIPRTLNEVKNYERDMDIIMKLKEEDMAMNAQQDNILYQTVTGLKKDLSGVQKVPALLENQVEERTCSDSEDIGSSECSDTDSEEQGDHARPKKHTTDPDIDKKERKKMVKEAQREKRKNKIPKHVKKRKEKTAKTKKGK

[10] = target: T3, Serine/threonine-protein kinase TBK1 (Homo sapiens) (UniProt Q9UHD2); test: Selectivity interaction (KinomeScan (DiscoverX)) EUB0000092b TBK1; settings: at 10 µM
T3 sequence (whole entry): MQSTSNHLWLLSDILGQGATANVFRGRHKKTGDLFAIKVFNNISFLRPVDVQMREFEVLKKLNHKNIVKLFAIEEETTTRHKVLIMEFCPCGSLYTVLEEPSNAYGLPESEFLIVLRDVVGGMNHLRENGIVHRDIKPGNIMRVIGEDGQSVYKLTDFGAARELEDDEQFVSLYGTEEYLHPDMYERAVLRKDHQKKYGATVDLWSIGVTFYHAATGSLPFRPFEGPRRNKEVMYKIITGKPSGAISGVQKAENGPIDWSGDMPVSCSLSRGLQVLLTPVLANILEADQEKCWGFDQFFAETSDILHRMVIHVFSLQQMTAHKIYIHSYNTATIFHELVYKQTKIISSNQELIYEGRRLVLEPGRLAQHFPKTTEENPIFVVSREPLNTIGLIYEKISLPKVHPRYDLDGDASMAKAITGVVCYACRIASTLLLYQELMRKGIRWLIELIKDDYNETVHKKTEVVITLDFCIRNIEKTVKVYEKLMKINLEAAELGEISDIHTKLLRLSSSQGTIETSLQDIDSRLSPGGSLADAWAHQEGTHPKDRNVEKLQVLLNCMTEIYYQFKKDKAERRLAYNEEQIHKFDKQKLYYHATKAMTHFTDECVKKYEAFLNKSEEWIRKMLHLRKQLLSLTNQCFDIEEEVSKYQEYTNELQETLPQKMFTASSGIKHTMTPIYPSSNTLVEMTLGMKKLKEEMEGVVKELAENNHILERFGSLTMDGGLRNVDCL

[11] = target: Serine/threonine-protein kinase N1 (Homo sapiens, UniProt Q16512); test: Selectivity interaction (KinomeScan (DiscoverX)) EUB0000045b PKN1
[12] = target: Fibroblast growth factor receptor 1 (Homo sapiens, UniProt P11362); test: Selectivity interaction (KinomeScan (DiscoverX)) EUB0001619a FGFR1; settings: at 1 µM
Fibroblast growth factor receptor 1, sequence (P11362 22-822 limits assumed): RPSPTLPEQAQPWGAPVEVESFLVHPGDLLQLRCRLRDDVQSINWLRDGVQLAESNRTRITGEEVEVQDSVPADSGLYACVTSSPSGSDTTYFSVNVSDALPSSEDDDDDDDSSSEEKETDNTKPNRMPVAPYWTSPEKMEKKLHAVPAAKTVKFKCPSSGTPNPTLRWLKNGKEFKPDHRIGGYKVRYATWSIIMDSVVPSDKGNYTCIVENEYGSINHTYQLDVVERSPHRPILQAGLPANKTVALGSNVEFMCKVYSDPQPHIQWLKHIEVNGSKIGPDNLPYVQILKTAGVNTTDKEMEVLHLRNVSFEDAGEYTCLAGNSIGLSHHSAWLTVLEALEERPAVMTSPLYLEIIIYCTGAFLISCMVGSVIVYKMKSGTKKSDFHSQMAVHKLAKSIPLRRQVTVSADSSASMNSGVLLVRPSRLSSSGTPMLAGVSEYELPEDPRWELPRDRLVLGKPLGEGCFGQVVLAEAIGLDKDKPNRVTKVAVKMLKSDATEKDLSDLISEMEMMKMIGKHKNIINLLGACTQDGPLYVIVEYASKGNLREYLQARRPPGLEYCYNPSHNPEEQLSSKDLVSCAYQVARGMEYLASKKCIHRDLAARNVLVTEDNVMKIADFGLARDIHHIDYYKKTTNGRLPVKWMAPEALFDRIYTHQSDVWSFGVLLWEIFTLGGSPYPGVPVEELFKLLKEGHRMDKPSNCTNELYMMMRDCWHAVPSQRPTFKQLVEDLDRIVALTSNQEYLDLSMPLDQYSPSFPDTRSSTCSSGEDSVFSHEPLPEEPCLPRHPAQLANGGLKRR

Serine/threonine-protein kinase N1, sequence (Q16512 2-942 limits assumed): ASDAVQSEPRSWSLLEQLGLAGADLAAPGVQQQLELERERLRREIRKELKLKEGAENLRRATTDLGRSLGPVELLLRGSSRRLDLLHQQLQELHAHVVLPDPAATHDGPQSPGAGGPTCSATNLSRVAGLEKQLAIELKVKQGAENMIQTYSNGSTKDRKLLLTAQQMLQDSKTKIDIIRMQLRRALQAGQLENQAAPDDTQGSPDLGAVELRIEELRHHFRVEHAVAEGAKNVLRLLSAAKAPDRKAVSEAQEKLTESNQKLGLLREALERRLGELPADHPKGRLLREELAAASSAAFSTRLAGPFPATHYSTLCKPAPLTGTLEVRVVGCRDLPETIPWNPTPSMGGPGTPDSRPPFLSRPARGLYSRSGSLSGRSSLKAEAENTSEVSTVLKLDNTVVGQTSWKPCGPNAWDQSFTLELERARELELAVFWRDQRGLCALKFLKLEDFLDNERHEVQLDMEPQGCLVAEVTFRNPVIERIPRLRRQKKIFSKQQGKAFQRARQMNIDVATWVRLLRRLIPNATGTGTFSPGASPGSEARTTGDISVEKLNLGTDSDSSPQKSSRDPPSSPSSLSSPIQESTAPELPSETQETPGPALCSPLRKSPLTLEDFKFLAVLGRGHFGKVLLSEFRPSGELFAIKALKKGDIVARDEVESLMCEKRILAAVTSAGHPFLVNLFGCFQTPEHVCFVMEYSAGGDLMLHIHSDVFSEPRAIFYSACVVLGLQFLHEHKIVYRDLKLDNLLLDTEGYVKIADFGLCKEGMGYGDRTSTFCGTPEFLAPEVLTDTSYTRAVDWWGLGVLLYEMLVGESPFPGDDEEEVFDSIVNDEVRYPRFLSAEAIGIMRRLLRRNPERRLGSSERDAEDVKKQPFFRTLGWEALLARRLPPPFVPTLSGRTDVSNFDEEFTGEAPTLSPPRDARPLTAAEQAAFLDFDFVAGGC
Mast/stem cell growth factor receptor Kit (Homo sapiens), P10721 [D816V], sequence (P10721 whole entry D816V): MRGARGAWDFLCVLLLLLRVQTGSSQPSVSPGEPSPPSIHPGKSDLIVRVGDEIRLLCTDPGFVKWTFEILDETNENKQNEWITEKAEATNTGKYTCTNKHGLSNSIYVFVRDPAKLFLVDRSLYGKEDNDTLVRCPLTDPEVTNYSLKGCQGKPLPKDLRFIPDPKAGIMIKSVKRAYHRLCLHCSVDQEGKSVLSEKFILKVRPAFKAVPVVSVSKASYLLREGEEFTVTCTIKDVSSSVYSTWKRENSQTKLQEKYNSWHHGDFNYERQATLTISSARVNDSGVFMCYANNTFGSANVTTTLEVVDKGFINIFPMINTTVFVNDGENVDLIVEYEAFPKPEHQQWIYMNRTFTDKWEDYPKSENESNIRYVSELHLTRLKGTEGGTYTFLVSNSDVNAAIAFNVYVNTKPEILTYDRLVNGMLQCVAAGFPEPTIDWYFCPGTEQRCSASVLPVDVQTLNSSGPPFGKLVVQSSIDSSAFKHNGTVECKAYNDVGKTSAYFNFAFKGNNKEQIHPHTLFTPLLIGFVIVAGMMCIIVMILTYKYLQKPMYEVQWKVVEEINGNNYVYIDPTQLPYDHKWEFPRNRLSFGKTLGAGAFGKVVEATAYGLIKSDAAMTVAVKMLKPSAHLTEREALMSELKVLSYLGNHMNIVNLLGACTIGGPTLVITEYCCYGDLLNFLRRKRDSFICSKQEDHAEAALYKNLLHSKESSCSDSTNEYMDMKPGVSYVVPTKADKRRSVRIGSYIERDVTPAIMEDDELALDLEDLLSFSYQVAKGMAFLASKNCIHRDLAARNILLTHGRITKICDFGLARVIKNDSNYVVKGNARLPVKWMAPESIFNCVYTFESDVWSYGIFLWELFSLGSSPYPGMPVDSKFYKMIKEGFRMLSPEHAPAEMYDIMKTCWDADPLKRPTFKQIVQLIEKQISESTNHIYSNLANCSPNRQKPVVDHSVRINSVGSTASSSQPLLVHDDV
Serine/threonine-protein kinase 10 (Homo sapiens), sequence (O94804 whole entry, looked up): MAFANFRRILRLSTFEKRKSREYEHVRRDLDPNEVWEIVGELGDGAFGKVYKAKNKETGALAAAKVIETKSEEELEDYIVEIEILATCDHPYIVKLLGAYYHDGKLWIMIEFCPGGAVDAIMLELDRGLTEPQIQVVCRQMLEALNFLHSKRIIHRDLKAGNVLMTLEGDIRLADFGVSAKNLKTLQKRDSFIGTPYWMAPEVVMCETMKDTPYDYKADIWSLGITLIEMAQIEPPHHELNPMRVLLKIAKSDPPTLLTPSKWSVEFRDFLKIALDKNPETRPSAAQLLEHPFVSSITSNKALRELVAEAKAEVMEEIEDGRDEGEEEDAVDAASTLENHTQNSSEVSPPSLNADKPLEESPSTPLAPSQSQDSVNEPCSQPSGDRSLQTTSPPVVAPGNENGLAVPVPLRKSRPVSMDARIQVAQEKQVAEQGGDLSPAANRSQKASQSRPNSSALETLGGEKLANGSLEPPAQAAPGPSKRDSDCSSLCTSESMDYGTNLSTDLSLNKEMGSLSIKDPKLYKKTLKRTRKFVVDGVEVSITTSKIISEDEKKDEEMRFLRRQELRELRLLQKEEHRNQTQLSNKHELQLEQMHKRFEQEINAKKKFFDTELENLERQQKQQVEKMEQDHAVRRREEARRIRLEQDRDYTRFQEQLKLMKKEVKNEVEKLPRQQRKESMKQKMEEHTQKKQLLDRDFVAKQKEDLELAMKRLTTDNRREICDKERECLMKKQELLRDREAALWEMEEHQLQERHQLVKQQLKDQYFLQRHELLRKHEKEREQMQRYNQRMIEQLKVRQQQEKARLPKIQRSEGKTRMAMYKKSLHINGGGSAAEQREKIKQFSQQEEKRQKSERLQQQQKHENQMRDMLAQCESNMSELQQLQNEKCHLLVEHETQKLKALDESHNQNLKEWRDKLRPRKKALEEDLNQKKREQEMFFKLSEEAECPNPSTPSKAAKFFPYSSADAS
Cyclin-dependent kinase 11B (Homo sapiens), sequence (P21127 whole entry): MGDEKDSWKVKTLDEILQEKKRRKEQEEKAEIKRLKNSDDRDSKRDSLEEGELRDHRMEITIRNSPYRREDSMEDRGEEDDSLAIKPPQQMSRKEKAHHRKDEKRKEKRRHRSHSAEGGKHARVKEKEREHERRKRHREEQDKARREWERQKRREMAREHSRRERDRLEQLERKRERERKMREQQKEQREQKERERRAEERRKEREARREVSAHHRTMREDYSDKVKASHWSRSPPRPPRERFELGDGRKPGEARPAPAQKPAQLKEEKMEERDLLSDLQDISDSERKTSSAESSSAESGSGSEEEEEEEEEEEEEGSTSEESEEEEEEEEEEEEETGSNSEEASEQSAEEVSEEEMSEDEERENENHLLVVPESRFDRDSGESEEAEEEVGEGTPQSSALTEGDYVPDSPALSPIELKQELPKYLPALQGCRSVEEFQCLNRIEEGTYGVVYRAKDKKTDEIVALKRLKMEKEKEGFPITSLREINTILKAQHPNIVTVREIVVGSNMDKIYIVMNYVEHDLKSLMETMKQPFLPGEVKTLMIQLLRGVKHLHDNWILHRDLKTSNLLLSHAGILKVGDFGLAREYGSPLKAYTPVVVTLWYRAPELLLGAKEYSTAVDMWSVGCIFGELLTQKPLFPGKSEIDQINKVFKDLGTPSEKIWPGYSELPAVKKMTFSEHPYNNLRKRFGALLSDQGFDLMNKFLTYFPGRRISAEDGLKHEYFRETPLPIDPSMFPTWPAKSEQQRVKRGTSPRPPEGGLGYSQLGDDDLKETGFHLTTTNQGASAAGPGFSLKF
Death-associated protein kinase 3 (Homo sapiens), sequence (O43293 whole entry, looked up): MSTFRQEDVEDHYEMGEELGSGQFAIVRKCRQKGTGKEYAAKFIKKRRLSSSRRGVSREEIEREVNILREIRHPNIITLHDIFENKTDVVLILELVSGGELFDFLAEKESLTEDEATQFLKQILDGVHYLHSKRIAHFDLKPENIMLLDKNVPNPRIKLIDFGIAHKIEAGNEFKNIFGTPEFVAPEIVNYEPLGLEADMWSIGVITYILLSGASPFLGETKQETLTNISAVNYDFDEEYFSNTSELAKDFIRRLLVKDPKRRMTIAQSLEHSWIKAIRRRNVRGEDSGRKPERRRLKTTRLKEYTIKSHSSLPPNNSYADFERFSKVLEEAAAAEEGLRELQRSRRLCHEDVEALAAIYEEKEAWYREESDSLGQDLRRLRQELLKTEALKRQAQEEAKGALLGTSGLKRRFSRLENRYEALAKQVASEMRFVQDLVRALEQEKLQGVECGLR

Compound: COc1cc(N(C)c2ccnc3ccc(C(F)(F)F)cc23)cc(OC)c1OC
- % binding [1]: 91%
- % binding [2]: 93%
- % binding [3]: 84%

Compound: CC(=O)c1cc(-c2ccccc2OCC2CC2)c2ncccn12
- activity [4]: 89%

Compound: Nc1cnc(N2CCc3cc(S(=O)(=O)Nc4c(F)cc(Cl)cc4F)cc(N4CCCC4=O)c32)nc1 [TP-020n]
- % of control [5]: 100%

Compound: CCN(CC)CCCCNc1ncc2cc(-c3cc(OC)cc(OC)c3)c(NC(=O)NC(C)(C)C)nc2n1
- % of control [6]: 100%
- % of control [7]: 100%
- % of control [8]: 100%

Compound: COCC(=O)NC/C=C/c1ccc2ncnc(Nc3ccc(Oc4ccc(C)nc4)c(C)c3)c2c1 [CP-724714]
- % of control [9]: 91%

Compound: CCC(=O)N1CCN(c2ccc(-n3c(=O)ccc4cnc5ccc(-c6cnc7ccccc7c6)cc5c43)cc2C(F)(F)F)CC1
- % of control [10]: 93%

Compound: C=CC(=O)Nc1cc(-n2c(=O)ccc3cnc4ccc(-c5ccc(NS(C)(=O)=O)cc5)cc4c32)ccc1C
- % of control ([11]; at 1 µM): 100%
- % of control ([11]; at 10 µM): 99%

Compound: N#Cc1cccc(-c2c[nH]c3ncnc(N4CCOCC4)c23)c1
- % of control [12]: 100%
